Calls of active or inactive are those of the source. No cut-off for these calls is given here.

The subject of data set [1] is BaF3. Kind of data set: cells. Particulars: Mus musculus, BaF3, 72 h.
Description: Antiproliferative activity against mouse BaF3 cells incubated for 72 hrs by CCK8 assay
Data set [2] concerns the target Proto-oncogene tyrosine-protein kinase receptor Ret (Mus musculus) (UniProt P35546). Kind of data set: Inhibition of RET signalling pathway in mouse BaF3 cells harboring CCDC6-RET-G810C mutant assessed as suppression of SHC activation at 33.3 nM incubated for 4 hrs by Western blot analysis. The format is cell-based. Background: In western blotting, separated proteins are transferred to a membrane and probed.

Data set [3] addresses Epithelial discoidin domain-containing receptor 1 (Homo sapiens, UniProt Q08345). As to the kind of experiment: Inhibition of DDR1 (unknown origin) by DiscoverX KINOMEscan assay.
In data set [4] the target is Platelet-derived growth factor receptor beta (Homo sapiens, UniProt P09619). As to the kind of experiment: Inhibition of PDGFRB (unknown origin) by DiscoverX KINOMEscan assay.
Data set [5] is described as follows: Half life in Sprague-Dawley rat at 5 mg/kg, iv. Type of data set: ADME, organism-based. The note with it: in vivo.
The nature of data set [6]: Cmax in fasted Sprague-Dawley rat at 25 mg/kg, po. The format is ADME, organism-based. The note with it: in vivo. On the set-up: dose 25 mg/kg, route po.
Data set [7] deals with Macrophage colony-stimulating factor 1 receptor (Homo sapiens, UniProt P07333). Kind of data set: Inhibition of CSF1R (unknown origin) by DiscoverX KINOMEscan assay.
Data set [8] addresses Proto-oncogene tyrosine-protein kinase receptor Ret (Mus musculus) (UniProt P35546). Kind of data set: Inhibition of RET signalling pathway in mouse BaF3 cells harboring CCDC6-RET-V804M mutant assessed as suppression of RET phosphorylation at 33.3 nM incubated for 4 hrs by Western blot analysis. The format is cell-based.
In data set [9] the target is Vascular endothelial growth factor receptor 2 (Homo sapiens, UniProt P35968). As to the kind of experiment: Inhibition of VEGFR2 (unknown origin) by DiscoverX KINOMEscan assay.
For data set [10], the system named is BaF3. Kind of data set: Antiproliferative activity against mouse BaF3 cells expressing CCDC6-RET incubated for 72 hrs by CCK8 assay. The note with it: BaF3, 72 h. Type of data set: functional, cell-based.
Data set [11] addresses Proto-oncogene tyrosine-protein kinase receptor Ret (Mus musculus) (UniProt P35546). Kind of data set: Inhibition of RET signalling pathway in mouse BaF3 cells harboring CCDC6-RET-G810C mutant assessed as suppression of SHC activation incubated for 4 hrs by Western blot analysis. The format is cell-based. The note with it: dose <= 300.0 nM.
Data set [12] is described as follows: AUC (0 to infinity) in fasted Sprague-Dawley rat at 25 mg/kg, po. On the set-up: dose 25 mg/kg, route po. The format is ADME, organism-based. The note with it: in vivo.
For data set [13], the target named is Proto-oncogene tyrosine-protein kinase receptor Ret (Mus musculus) (UniProt P35546). Kind of data set: Inhibition of RET signalling pathway in mouse BaF3 cells harboring CCDC6-RET-G810C mutant assessed as suppression of RET activation incubated for 4 hrs by Western blot analysis. Type of data set: cell-based. Particulars: dose <= 300.0 nM.
For data set [14] the target is unchanged. Kind of data set: Inhibition of RET signalling pathway in mouse BaF3 cells harboring CCDC6-RET assessed as suppression of RET phosphorylation at 33.3 nM incubated for 4 hrs by Western blot analysis. Type of data set: cell-based.
For data set [15] the target is unchanged. Kind of data set: Inhibition of RET signalling pathway in mouse BaF3 cells harboring CCDC6-RET-V804M mutant assessed as suppression of SHC activation at 33.3 nM incubated for 4 hrs by Western blot analysis. Type of data set: cell-based.
The nature of data set [16]: AUC (0 to infinity) in Sprague-Dawley rat at 5 mg/kg, iv. Type of data set: ADME, organism-based. On the set-up: dose 5 mg/kg, route iv. The note with it: in vivo.
The test system of data set [17] is BaF3. Kind of data set: Antiproliferative activity against mouse BaF3 cells expressing CCDC6-RET-G810C incubated for 72 hrs by CCK8 assay. Type of data set: functional, cell-based. The note with it: BaF3, 72 h. In general terms: Tetrazolium dyes change colour on reduction, which living cells bring about.
Data set [18] addresses Proto-oncogene tyrosine-protein kinase receptor Ret (Homo sapiens, UniProt P07949, V804M). As to the kind of experiment: Inhibition of RET V804M mutant (unknown origin) by DiscoverX KINOMEscan assay.
Data set [19] concerns BaF3. As to the kind of experiment: Antiproliferative activity against mouse BaF3 cells expressing CCDC6-RET-V804M incubated for 72 hrs by CCK8 assay. Type of data set: functional, cell-based. Particulars: BaF3, 72 h.
Data set [20] is described as follows: Tmax in fasted Sprague-Dawley rat at 25 mg/kg, po. Particulars: in vivo. Type of data set: ADME, organism-based.
The target of data set [21] is Proto-oncogene tyrosine-protein kinase receptor Ret (Mus musculus) (UniProt P35546). As to the kind of experiment: Inhibition of RET signalling pathway in mouse BaF3 cells harboring CCDC6-RET-G810C mutant assessed as suppression of RET phosphorylation at 33.3 nM incubated for 4 hrs by Western blot analysis. The format is cell-based.
The target in data set [22] is Mast/stem cell growth factor receptor Kit (Homo sapiens, UniProt P10721). As to the kind of experiment: Inhibition of KIT (unknown origin) by DiscoverX KINOMEscan assay.
The target in data set [23] is T1, Proto-oncogene tyrosine-protein kinase receptor Ret (Homo sapiens, UniProt P07949). Kind of data set: Inhibition of RET (unknown origin) by DiscoverX KINOMEscan assay.
Data set [24] addresses Epidermal growth factor receptor (Homo sapiens, UniProt P00533). As to the kind of experiment: Inhibition of EGFR (unknown origin) by DiscoverX KINOMEscan assay.
The nature of data set [25]: Half life in fasted Sprague-Dawley rat at 25 mg/kg, po. The format is ADME, organism-based. The note with it: in vivo.
A short description of data set [26]: Bioavailability in fasted Sprague-Dawley rat at 25 mg/kg, po. Particulars: in vivo. Type of data set: ADME, organism-based.
In data set [27] the target is Proto-oncogene tyrosine-protein kinase receptor Ret (Mus musculus) (UniProt P35546). As to the kind of experiment: Inhibition of RET signalling pathway in mouse BaF3 cells harboring CCDC6-RET assessed as suppression of SHC activation at 33.3 nM incubated for 4 hrs by Western blot analysis. The format is cell-based.
Data set [28] addresses T1, Proto-oncogene tyrosine-protein kinase receptor Ret. As to the kind of experiment: Binding affinity to RET (unknown origin) assessed as dissociation constant in presence of ATP by FRET based Z'-Lyte assay.
Data set [29] is described as follows: Cmax in Sprague-Dawley rat at 5 mg/kg, iv. Further details: dose 5 mg/kg, route iv. The format is ADME, organism-based. The note with it: in vivo.
The subject of data set [30] is BaF3. Kind of data set: Antiproliferative activity against mouse BaF3 cells expressing CCDC6-RET-G810R incubated for 72 hrs by CCK8 assay. The format is functional, cell-based. The note with it: BaF3, 72 h.
Data set [31] has as its system BaF3. Kind of data set: Antitumor activity against mouse BaF3 cells expressing CCDC6-RET-V804M xenografted in CB17-SCID mouse model assessed as tumor growth inhibition at 60 mg/kg, po qd via gavage for 14 days relative to control. The format is functional. Particulars: BaF3, 336 h, time 14 day, read-out: TGI.
Data set [32] deals with BaF3. As to the kind of experiment: Antitumor activity against mouse BaF3 cells expressing CCDC6-RET-V804M xenografted in CB17-SCID mouse model assessed as tumor growth inhibition at 30 mg/kg, po qd via gavage for 14 days relative to control. The note with it: BaF3, 336 h, time 14 day, read-out: TGI. Type of data set: functional.
A short description of data set [33]: Toxicity in CB17-SCID mouse model xenografted with mouse BaF3 cells expressing CCDC6-RET-V804M assessed as body weight loss at 30 to 60 mg/kg, po qd via gavage for 14 days. The format is organism-based. The note with it: in vivo, 336 h, dose 30-60 mg/kg, time 14 day.
The nature of data set [34]: Toxicity in CB17-SCID mouse model xenografted with mouse BaF3 cells expressing CCDC6-RET-V804M assessed as animal mortality at 30 to 60 mg/kg, po qd via gavage for 14 days. The format is organism-based. Particulars: in vivo, 336 h, dose 30-60 mg/kg, time 14 day.

T1 sequence (P07949 whole entry): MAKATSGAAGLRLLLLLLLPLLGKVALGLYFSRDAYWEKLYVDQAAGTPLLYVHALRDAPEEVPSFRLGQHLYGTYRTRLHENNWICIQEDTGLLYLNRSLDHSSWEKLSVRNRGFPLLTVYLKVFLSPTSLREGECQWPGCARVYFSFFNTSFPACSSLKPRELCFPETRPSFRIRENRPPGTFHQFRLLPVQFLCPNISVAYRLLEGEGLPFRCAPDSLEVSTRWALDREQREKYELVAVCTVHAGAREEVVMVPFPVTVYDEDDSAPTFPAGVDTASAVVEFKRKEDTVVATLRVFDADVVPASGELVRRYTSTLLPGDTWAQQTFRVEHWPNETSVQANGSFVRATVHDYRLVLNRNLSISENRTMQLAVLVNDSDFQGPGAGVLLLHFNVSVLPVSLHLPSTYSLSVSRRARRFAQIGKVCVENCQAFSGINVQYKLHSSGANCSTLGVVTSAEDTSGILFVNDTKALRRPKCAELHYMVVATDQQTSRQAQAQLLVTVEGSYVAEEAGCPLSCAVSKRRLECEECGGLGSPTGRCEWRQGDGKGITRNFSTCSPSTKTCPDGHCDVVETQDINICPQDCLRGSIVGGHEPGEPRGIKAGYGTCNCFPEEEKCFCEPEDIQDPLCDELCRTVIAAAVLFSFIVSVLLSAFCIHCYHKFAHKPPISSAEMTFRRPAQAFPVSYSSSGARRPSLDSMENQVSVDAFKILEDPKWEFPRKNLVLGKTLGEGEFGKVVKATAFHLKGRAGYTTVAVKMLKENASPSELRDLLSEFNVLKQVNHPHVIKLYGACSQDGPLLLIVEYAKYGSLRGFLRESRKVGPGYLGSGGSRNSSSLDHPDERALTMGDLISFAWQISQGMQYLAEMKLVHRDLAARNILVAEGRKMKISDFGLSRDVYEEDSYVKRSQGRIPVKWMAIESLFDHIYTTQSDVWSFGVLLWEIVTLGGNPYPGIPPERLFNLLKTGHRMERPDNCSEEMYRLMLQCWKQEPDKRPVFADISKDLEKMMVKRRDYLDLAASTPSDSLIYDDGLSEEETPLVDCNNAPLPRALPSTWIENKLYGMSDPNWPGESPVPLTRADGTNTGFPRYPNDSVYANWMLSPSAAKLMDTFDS
Sequence of Proto-oncogene tyrosine-protein kinase receptor Ret (Mus musculus) (P35546 whole entry): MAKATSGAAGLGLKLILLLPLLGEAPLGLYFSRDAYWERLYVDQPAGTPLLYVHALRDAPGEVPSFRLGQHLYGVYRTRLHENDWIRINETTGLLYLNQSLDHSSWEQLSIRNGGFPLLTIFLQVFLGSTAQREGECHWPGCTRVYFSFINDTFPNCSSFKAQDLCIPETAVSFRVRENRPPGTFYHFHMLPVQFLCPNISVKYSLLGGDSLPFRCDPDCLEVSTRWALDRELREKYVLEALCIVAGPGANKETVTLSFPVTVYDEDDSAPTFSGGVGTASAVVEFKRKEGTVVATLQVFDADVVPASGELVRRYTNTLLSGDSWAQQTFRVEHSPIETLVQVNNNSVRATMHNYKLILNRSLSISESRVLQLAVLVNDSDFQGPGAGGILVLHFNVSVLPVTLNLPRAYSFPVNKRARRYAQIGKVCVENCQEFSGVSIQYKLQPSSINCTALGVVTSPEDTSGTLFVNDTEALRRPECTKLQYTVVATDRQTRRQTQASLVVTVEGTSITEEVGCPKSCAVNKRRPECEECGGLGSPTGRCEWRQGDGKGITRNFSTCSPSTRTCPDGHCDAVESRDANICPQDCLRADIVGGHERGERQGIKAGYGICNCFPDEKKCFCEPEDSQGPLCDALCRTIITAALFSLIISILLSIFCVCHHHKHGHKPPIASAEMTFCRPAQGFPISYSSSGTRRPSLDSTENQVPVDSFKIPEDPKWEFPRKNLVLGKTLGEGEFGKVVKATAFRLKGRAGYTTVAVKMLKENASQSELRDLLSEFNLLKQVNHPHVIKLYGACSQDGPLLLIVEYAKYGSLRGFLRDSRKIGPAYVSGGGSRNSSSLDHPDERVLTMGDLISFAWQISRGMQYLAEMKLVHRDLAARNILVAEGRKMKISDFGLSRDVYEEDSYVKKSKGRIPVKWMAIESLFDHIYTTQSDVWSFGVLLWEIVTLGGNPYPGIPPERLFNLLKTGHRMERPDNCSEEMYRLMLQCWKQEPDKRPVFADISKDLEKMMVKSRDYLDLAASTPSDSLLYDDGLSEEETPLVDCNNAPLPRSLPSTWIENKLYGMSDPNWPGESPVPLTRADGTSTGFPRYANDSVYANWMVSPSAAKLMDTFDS
Sequence of Vascular endothelial growth factor receptor 2 (P35968 whole entry): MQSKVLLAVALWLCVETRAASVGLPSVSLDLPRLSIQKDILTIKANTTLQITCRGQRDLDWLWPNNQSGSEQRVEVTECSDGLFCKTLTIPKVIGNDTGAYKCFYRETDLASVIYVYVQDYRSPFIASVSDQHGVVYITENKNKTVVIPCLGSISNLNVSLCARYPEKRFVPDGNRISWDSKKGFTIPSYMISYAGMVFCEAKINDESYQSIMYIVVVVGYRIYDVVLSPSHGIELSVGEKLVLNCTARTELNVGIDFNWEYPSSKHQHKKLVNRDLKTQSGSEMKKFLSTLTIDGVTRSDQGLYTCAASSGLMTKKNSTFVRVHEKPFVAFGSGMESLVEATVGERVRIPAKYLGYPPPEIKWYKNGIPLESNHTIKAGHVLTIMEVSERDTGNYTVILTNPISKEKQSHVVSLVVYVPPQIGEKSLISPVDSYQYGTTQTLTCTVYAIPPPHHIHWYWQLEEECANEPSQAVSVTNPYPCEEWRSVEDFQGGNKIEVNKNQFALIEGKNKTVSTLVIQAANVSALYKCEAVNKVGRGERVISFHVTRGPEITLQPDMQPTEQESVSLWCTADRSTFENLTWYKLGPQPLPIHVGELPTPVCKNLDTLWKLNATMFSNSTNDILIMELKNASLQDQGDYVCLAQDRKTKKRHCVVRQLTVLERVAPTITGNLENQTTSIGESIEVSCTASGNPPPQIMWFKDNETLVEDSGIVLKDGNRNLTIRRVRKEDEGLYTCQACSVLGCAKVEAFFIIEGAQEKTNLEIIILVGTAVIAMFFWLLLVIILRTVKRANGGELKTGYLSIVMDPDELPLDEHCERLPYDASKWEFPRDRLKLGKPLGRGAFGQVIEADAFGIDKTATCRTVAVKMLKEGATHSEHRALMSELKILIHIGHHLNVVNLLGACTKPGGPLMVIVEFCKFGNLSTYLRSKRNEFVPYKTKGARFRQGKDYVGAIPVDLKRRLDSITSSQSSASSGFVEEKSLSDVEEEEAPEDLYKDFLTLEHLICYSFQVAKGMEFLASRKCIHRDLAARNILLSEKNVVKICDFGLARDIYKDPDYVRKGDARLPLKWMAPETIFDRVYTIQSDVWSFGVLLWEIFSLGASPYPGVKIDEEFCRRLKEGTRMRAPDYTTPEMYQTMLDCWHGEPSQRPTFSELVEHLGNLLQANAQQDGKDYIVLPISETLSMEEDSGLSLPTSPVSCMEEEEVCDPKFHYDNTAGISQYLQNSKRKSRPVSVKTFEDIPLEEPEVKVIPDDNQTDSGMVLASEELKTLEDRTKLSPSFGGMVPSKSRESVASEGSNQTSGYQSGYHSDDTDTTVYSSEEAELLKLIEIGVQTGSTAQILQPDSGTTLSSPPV
Sequence of Mast/stem cell growth factor receptor Kit (P10721 whole entry): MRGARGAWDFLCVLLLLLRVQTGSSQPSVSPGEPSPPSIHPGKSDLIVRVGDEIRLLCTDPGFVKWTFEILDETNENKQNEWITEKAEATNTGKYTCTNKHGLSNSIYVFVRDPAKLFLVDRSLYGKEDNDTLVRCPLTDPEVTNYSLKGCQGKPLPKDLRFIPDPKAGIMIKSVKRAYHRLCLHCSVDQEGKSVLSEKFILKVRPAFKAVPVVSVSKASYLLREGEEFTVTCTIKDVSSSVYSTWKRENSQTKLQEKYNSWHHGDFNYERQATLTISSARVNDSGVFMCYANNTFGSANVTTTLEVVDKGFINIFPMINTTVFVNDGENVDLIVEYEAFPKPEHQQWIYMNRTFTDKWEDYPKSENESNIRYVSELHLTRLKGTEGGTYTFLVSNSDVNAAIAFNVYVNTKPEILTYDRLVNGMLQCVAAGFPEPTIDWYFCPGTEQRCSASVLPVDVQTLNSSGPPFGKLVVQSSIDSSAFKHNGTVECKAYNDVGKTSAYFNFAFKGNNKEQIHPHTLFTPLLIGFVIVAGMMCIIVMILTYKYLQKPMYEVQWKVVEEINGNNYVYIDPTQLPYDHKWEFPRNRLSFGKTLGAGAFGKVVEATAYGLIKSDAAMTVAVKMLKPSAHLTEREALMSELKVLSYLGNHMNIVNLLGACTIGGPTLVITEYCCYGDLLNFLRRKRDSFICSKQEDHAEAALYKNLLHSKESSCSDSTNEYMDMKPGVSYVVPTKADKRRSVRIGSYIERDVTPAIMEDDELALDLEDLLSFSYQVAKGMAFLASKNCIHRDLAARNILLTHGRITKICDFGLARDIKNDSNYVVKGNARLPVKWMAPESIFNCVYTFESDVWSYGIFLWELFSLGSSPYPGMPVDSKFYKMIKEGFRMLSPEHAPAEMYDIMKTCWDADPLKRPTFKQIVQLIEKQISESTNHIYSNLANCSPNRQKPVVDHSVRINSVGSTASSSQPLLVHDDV

Take `CC(C)(C)c1cc(NC(=O)Nc2ccc(-c3cc(-c4ccc(OCCN5CCOCC5)cc4)[nH]n3)cc2)no1`: the IC50 – broadly, the concentration that inhibits the measured activity by half – in data set [1] worked out at 1.23 µM; in data set [3] it was 0.009 µM; in [4], 0.0244 µM; in [7], 0.033 µM; in [9] it was 0.331 µM; in data set [10], 0.0093 µM. The IC50 in data set [17] was 0.0898 µM; in data set [18], 0.0154 µM; in data set [19], 0.0094 µM; in data set [22], 0.0216 µM; in [23], 0.0161 µM; in data set [24], > 1 µM. Further, half-maximal inhibition in data set [30] (IC50) required 0.549 µM. Besides, the inhibition entry in [2], in [8], in data set [14], in data set [15], in data set [21] and in data set [27] was “Active” each time. Moreover, the figures for the half-life in [5] and in [25] were 3.3 h and 6.9 h, respectively. Also, the highest concentration (Cmax) (as a rule, the highest concentration seen after dosing) in [6] was 1250 ng/mL; in data set [29], 10700 ng/mL. Besides, the inhibition result in data set [11] and in data set [13] was “Dose-Dependent Effect” each time. The total exposure AUC(0-inf) (as a rule, total exposure, with the tail of the curve extrapolated) in data set [12] was found to be 20500 ng·h/mL; in data set [16] it was 15600 ng·h/mL. Further, the Tmax – broadly, the time at which the peak concentration occurs – in data set [20] came out at 6 h. Besides, in data set [26], the bioavailability (in general, the share of a dose that reaches the circulation, judged against a reference dose that is usually intravenous) turned out to be 23.6%. The Kd (in general, the free concentration of one partner at which half of the binding sites on the other are occupied at equilibrium, for simple one-to-one binding) in [28] amounted to 0.0043 µM.
With `CC(C)(c1cc(NC(=O)Nc2ccc(-c3cc(-c4ccc(OCCN5CCOCC5)cc4)[nH]n3)cc2)no1)C(F)(F)F`, the IC50 in data set [1] stood at 3.87 µM; in data set [3], 0.0666 µM; in data set [4], 0.0163 µM; in data set [7], 0.108 µM; in data set [9], 0.38 µM; in data set [10], 0.0136 µM. Moreover, the IC50 was 0.0846 µM in data set [17]; 0.0183 µM in [18]; 0.0121 µM in data set [19]; 0.0451 µM in [22]; 0.0209 µM in [23]; > 1 µM in [24]. In data set [30], it took 0.401 µM to reach half-maximal inhibition (IC50). For the same molecule, the inhibition entry in data set [2], in data set [8], in data set [14], in data set [15], in data set [21] and in data set [27] was “Active” throughout. The values for the half-life in data set [5] and in data set [25] were 8.8 h and 12.4 h, respectively. The Cmax in data set [6] was 2060 ng/mL; in [29], 9970 ng/mL. The inhibition in vivo at 60 mg/kg in [31] came out at 94.6%. Besides, the inhibition result in [11] and in data set [13] was “Dose-Dependent Effect” each time. The total exposure AUC(0-inf) was determined as 43800 ng·h/mL in [12] and 32500 ng·h/mL in [16]. For the same molecule, in data set [32], the inhibition in vivo at 30 mg/kg is 83.6%. The Tmax in data set [20] is 6.7 h. For the same molecule, the Activity entry in [33] and in data set [34] was “Non-Toxic” in each case. In data set [26], this molecule gave a bioavailability of 21.1%. The Kd in data set [28] was determined as 0.0065 µM.
With `CC(C)(C)c1cc(NC(=O)Nc2ccc(-c3c[nH]c(-c4ccc(OCCN5CCOCC5)cc4Cl)n3)cc2)no1`, the 50% inhibitory concentration (IC50) in [1] was determined as 0.772 µM; in [10] it was 0.404 µM; in [17] it was 0.802 µM; in data set [19] it was 0.491 µM; in data set [30], 0.716 µM. For the same molecule, the Kd in data set [28] was 0.0315 µM.
As to `CC(C)(C)c1cc(NC(=O)Nc2ccc(-c3n[nH]c(-c4ccc(OCCN5CCOCC5)cc4Cl)n3)cc2)no1`, the IC50 in data set [1] was found to be 0.424 µM; in data set [10], 0.328 µM; in [17], 0.682 µM; in [19] it was 0.339 µM; in data set [30], 0.869 µM. Besides, in data set [28], the equilibrium dissociation constant (Kd) turned out to be 0.0102 µM.

For the origin of these results see ChEMBL document CHEMBL5346912, “Discovery of 3,5-diaryl-1H-pyrazol-based ureas as potent RET inhibitors” (Eur J Med Chem, 2023).
